Consider 12 molecules from ChEMBL document CHEMBL1201862, “PubChem BioAssay data set” (2004).

Test systems include A549; BT-549; CCRF-CEM; COLO 205; EKVX; HOP-62; HOP-92; HT-29; K562; MDA-MB-435; OVCAR-3; OVCAR-8; RXF 393; SF-268; SW-620; UO-31; HL-60; NCI-H460; SNB-75.
Assay in all cases: NCI-60 cell line screen, 48 h

Molecules are shown by their SMILES.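 Five concentrations, 48 hours, 96-well plates. GI50 marks 50% less growth.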 Activity calls are given as the source filed them. No stated cut-off is given here; in the data, active = GI50 up to about 1.1 µM and inactive = higher.

`CC1(C)C[C@H]2[C@H](O)C(CO)=C3C(=O)[C@@H](O)[C@]3(C)[C@H]2C1`: the GI50 was > 100 µM (inactive) in the experiment on A549; 45.7 µM (inactive) in the experiment with BT-549; 24.5 µM (inactive) in the experiment with CCRF-CEM; > 100 µM (inactive) in the experiment with COLO 205; > 100 µM (inactive) with EKVX; > 100 µM (inactive) in the experiment on HOP-62. The GI50 in the experiment on HOP-92 is > 100 µM (inactive); with HT-29, 85.7 µM (inactive); in the experiment on K562, 36.6 µM (inactive); in the experiment with MDA-MB-435 it was 50.5 µM (inactive); in the experiment with OVCAR-3, > 100 µM (inactive); in the experiment on OVCAR-8 it was > 100 µM (inactive). For the same molecule, the GI50 was 61.7 µM (inactive) in the experiment on RXF 393, 87.1 µM (inactive) with SF-268, > 100 µM (inactive) in the experiment with SW-620 and 89.5 µM (inactive) with UO-31.

`CCCCSC1=N/C(=C\c2ccco2)C(Cl)=N1`: the GI50 in the experiment with A549, with BT-549, in the experiment on CCRF-CEM, in the experiment with COLO 205, with EKVX and in the experiment on HL-60 was > 100 µM (inactive) throughout. Moreover, the GI50 with HOP-62, with HT-29, with MDA-MB-435, with NCI-H460, in the experiment on OVCAR-3 and with OVCAR-8 was > 100 µM (inactive) each time. The GI50 in the experiment on RXF 393, with SF-268, in the experiment with SNB-75, in the experiment with SW-620 and with UO-31 was > 100 µM (inactive) throughout.

With `CC(c1ccccc1)N1CCN(C(C)c2ccccc2)CC1` (stereo unspecified), the GI50 is > 100 µM (inactive) with A549; > 100 µM (inactive) in the experiment with BT-549; > 100 µM (inactive) with EKVX; > 100 µM (inactive) in the experiment on HL-60; > 100 µM (inactive) with HOP-62; 31.6 µM (inactive) with HOP-92. Besides, the GI50 was 44.8 µM (inactive) in the experiment with HT-29; 27.7 µM (inactive) with K562; 80.4 µM (inactive) in the experiment with MDA-MB-435; 65.2 µM (inactive) in the experiment with NCI-H460; 35.4 µM (inactive) with OVCAR-3; > 100 µM (inactive) in the experiment on OVCAR-8. For the same molecule, the GI50 is 79.6 µM (inactive) in the experiment with RXF 393, > 100 µM (inactive) in the experiment on SF-268, > 100 µM (inactive) in the experiment on SW-620 and > 100 µM (inactive) in the experiment with UO-31.

As to `CCC(=O)N1C(=O)C(CC)(CC)C(=O)N1C(=O)CC`, the GI50 in the experiment with A549, in the experiment on BT-549, with CCRF-CEM, in the experiment with COLO 205, in the experiment with EKVX and with HL-60 was > 100 µM (inactive) in each case. In addition, the GI50 in the experiment on HOP-62, with HT-29, in the experiment with K562, with MDA-MB-435, in the experiment with NCI-H460 and with OVCAR-3 was > 100 µM (inactive) in each case. In addition, the GI50 in the experiment with OVCAR-8, with RXF 393, in the experiment on SF-268, with SNB-75, with SW-620 and in the experiment on UO-31 was > 100 µM (inactive) in each case.

Consider `COCCn1cnc2c(Cl)nc(Nc3ccccc3)nc21`, for which the GI50 with A549 is 48.8 µM (inactive); in the experiment on BT-549, 27.4 µM (inactive); in the experiment with CCRF-CEM, 19.3 µM (inactive); in the experiment with COLO 205 it was 76.2 µM (inactive); with EKVX it was 21.3 µM (inactive); with HL-60, 22.9 µM (inactive). Further, the GI50 with HOP-62 was 59.7 µM (inactive); with HT-29, 64 µM (inactive); with K562, 25.9 µM (inactive); with MDA-MB-435, 18.1 µM (inactive); in the experiment with NCI-H460 it was 82.4 µM (inactive); with OVCAR-3, 16.5 µM (inactive). For the same molecule, the GI50 in the experiment on OVCAR-8 was 23.9 µM (inactive); with RXF 393, 20.9 µM (inactive); in the experiment on SF-268, 39.4 µM (inactive); in the experiment on SNB-75 it was 68.5 µM (inactive); in the experiment on SW-620, 32.3 µM (inactive).

For the molecule `Cc1ccc(/N=N/c2c(C)c(C#N)c(=S)n(C3OC(CO)C(O)C(O)C3O)c2-c2ccccc2)cc1` (stereo unspecified), the GI50 in the experiment on A549 was 32 µM (inactive); in the experiment with BT-549 it was 19.6 µM (inactive); with CCRF-CEM it was 11.5 µM (inactive); in the experiment on COLO 205 it was 25.1 µM (inactive); in the experiment on HL-60, 36.8 µM (inactive); in the experiment with HOP-62, 24.9 µM (inactive). The GI50 in the experiment on HT-29 was 27.7 µM (inactive); in the experiment on K562, 8.13 µM (inactive); with MDA-MB-435 it was 6.18 µM (inactive); in the experiment on NCI-H460 it was 27.7 µM (inactive); with OVCAR-3, 19.5 µM (inactive); in the experiment with RXF 393, 17.8 µM (inactive). Further, the GI50 with SF-268 is 26.7 µM (inactive); in the experiment with SNB-75, 20.1 µM (inactive); in the experiment on SW-620, 15.6 µM (inactive); with UO-31, 33.5 µM (inactive).

Take `CN1CCN(C(=S)N(C)C(=O)c2ccco2)CC1`: the GI50 is > 100 µM (inactive) with A549; > 100 µM (inactive) in the experiment with BT-549; > 100 µM (inactive) in the experiment with CCRF-CEM; > 100 µM (inactive) in the experiment on COLO 205; > 10 µM (inactive) in the experiment with HL-60; > 100 µM (inactive) in the experiment with HOP-92. The GI50 in the experiment on HT-29, with K562, with MDA-MB-435, with NCI-H460, with OVCAR-3 and in the experiment with OVCAR-8 was > 100 µM (inactive) each time. For the same molecule, the GI50 with RXF 393, in the experiment with SW-620 and in the experiment on UO-31 was > 100 µM (inactive) in each case.

Regarding `CCOC(=O)c1nc2cc(C(F)(F)F)ccc2nc1Nc1ccc(C(=O)NC(C(=O)OCC)C(=O)OCC)cc1`, the GI50 in the experiment on BT-549 is 23.6 µM (inactive); in the experiment on CCRF-CEM, 75 µM (inactive); in the experiment with COLO 205, 44.4 µM (inactive); with EKVX it was 26.2 µM (inactive); in the experiment with HL-60, 73.6 µM (inactive); in the experiment with HOP-62 it was 13.8 µM (inactive). Also, the GI50 in the experiment with HOP-92 is 27.4 µM (inactive); in the experiment on HT-29, 25.1 µM (inactive); in the experiment with K562, 43.2 µM (inactive); in the experiment with MDA-MB-435, 33.6 µM (inactive); in the experiment with NCI-H460 it was 73.6 µM (inactive); in the experiment on OVCAR-3, 45.4 µM (inactive). The GI50 is 13.6 µM (inactive) in the experiment on RXF 393, 19.5 µM (inactive) in the experiment with SF-268, 40.8 µM (inactive) in the experiment on SW-620 and 30.6 µM (inactive) in the experiment with UO-31.

On to `CCOC(=O)c1nc2ccc(C(F)(F)F)cc2[nH]c1=O`, for which the GI50 with A549, in the experiment with BT-549, in the experiment on CCRF-CEM, in the experiment on COLO 205, with HL-60 and in the experiment on HOP-62 was > 100 µM (inactive) each time. Moreover, the GI50 with HOP-92, with HT-29, in the experiment with K562, in the experiment on MDA-MB-435, in the experiment with NCI-H460 and with OVCAR-3 was > 100 µM (inactive) in each case. For the same molecule, the GI50 in the experiment with OVCAR-8, with RXF 393, with SF-268, in the experiment with SW-620 and with UO-31 was > 100 µM (inactive) throughout.

As for `COc1ccc(/C=N/Nc2nc(=S)[nH]c3[nH]ncc23)cc1`, the GI50 was 54.3 µM (inactive) in the experiment with A549; > 100 µM (inactive) with BT-549; 24.7 µM (inactive) with CCRF-CEM; 18.3 µM (inactive) in the experiment with COLO 205; 59.4 µM (inactive) in the experiment on EKVX; > 100 µM (inactive) in the experiment on HL-60. Also, the GI50 with HOP-62 is 29.9 µM (inactive); with HT-29, 48.5 µM (inactive); with K562, > 100 µM (inactive); in the experiment with MDA-MB-435, 30.6 µM (inactive); in the experiment on NCI-H460 it was 79.8 µM (inactive); in the experiment on OVCAR-3 it was 60.7 µM (inactive). Besides, the GI50 in the experiment with OVCAR-8 is > 100 µM (inactive); in the experiment on RXF 393, > 100 µM (inactive); in the experiment with SF-268, 93.8 µM (inactive); with SNB-75 it was > 100 µM (inactive); in the experiment with SW-620, > 100 µM (inactive); with UO-31 it was > 100 µM (inactive).

Take `CCNCCNc1c2ccccc2nc2ccccc12`: the GI50 is 1.56 µM (inactive) with A549; 2.84 µM (inactive) in the experiment with BT-549; 1.29 µM (inactive) in the experiment on CCRF-CEM; 0.822 µM (active) in the experiment on COLO 205; 2.44 µM (inactive) in the experiment on EKVX; 2.24 µM (inactive) with HL-60. The GI50 in the experiment on HOP-62 is 0.461 µM (active); with HT-29, 0.427 µM (active); in the experiment on K562, 0.551 µM (active); with MDA-MB-435, 1.21 µM (inactive); with NCI-H460, 0.453 µM (active); in the experiment with OVCAR-3 it was 4.05 µM (inactive). The GI50 with OVCAR-8 is 1.81 µM (inactive); with RXF 393, 1.23 µM (inactive); in the experiment on SF-268, 1.35 µM (inactive); in the experiment with SNB-75 it was 1.53 µM (inactive); in the experiment on SW-620 it was 0.147 µM (active); with UO-31 it was 1.49 µM (inactive).

As for `CCCCOc1ccc(S(=O)(=O)N/C(=N\O)Nc2ccc(Cl)cc2)cc1`, the GI50 with A549 is 16.1 µM (inactive); in the experiment with BT-549 it was 13.4 µM (inactive); in the experiment with CCRF-CEM, 19 µM (inactive); in the experiment with COLO 205, 18.3 µM (inactive); in the experiment with EKVX, 15.8 µM (inactive); with HOP-62, 17.9 µM (inactive). In addition, the GI50 was 4.79 µM (inactive) with HOP-92; 17.2 µM (inactive) in the experiment on HT-29; 18.3 µM (inactive) with K562; 15.9 µM (inactive) with MDA-MB-435; 15.4 µM (inactive) with NCI-H460; 14.9 µM (inactive) with OVCAR-3. Moreover, the GI50 was 17.9 µM (inactive) in the experiment on OVCAR-8; 15.2 µM (inactive) with RXF 393; 16 µM (inactive) with SF-268; 17.5 µM (inactive) in the experiment on SW-620; 12.2 µM (inactive) in the experiment on UO-31.
